Measured values reported in patent US7326689B2, “Pseudomycins useful against plant diseases” (Eli Lilly and Company, priority 2000, dated 2008).

Columns and labels:
Experiment in all cases: Antifungal growth assay in potato dextrose broth, 24-well
Format in all cases: cell-based
Design in all cases: key: NI, no inhibition; p (partial), at least 50% inhibited
Phytophthora cactorum = tested on: Phytophthora cactorum
Description: (§1) Fungi to be tested were propagated on potato dextrose agar (PDA) plates at room temperature. Stock solutions of pseudomycins and depsipeptide were suspended in dimethylsulfoxide (DMSO) (Sigma) at 5 mg/ml and stored at −20C. Serial dilutions of compounds were done the day of the experiment. All serial dilutions were made in DMSO. […] These are noted in the raw data section.
(§2) Assays were performed in 24-well cell culture clusters (Costar 3524), with 990 ul potato dextrose broth (PDB, Difco) and 10 ul of the compound to be tested in each well. Initial concentrations tested were 50-1.56 ug/ml (final concentration of pseudomycin). Actual concentrations of pseudomycins tested were 50, 25, 12.5, 6.25, 3.12 and 1.56 ug/ml. Each well was inoculated with the appropriate fungus. Unless noted, the fungal inoculum consisted of an ˜4 mm^2 piece of PDA with fungal mycelium. The exceptions were as follows. Ustilago maydis: this fungus grows much like a yeast on PDA, and cells were scraped from the PDA stock plate, resuspended in PDB and 10 ul inoculum added to each well. Monilinia sp.: this fungal mycelium grows as a very loose sheet on top of PDA and would not adhere to agar blocks. Fungal mycelium was ground with a metal rod in 500 ul PDB and 10 ul inoculum was added to each well. Mycosphaeella fijiensis, Septoria passerinii, Septoria triticii: these fungi all grow very slowly and the results were difficult to score if a small piece of agar with fungal mycelium on it was used as an inoculum. For these fungi, the mycelium was ground with a metal rod in 500 ul PDB and 10 ul inoculum was added to each well.
(§3) Wells were scored for fungal growth at two days and five days. Some slow growing fungi were scored at later days for growth because assessment was not possible at two or five days. Growth was scored by comparison to a control consisting of fungus inoculated into 990 ul potato dextrose broth and 10 ul of DMSO (Dimethylsulfoxide). An additional control consisting of fungal inoculum in PDB only was performed to ensure that the DMSO was not inhibitory to fungal growth.
(§4) For assays that were repeated, new stock solutions were made from a second shipment of pseudomycins. Note that pseudomycin B′ and depsipeptide stock solutions were remade from first shipment materials because these were not included in the second shipment. […] Actual concentrations of pseudomycins tested were 2, 1, 0.5, 0.25, 0.125 and 0.0625 ug/ml. A-PO4 and A-FB=pseudomycin A phosphate salt and free base respectively.
(§5) Table 2: Two day results—concentration indicated is lowest level of compound (ug /ml) that results is no growth. NI, no inhibition; p (partial), at least 50% inhibited; -, not determined. If number of assays was greater than one, number of assays performed on the fungus is noted in parentheses. For several slow-growing fungi, days elapsed before observation (if different than two) are noted.
(§6) Table 3: Five day results—concentration indicated is lowest level of compound (ug /ml) that results in no growth. NI, no inhibition; p (partial), at least 50% inhibited; -, not performed on the fungus is noted in parentheses. For several slow-growing fungi, days elapsed before observation (if different than five) are noted.

Verticillium dahliae = settings: 2x assays
Description: as §1, §2, §3, §4, §5, §6

Phoma chrysamthecola = settings: five day results
Description: as §1, §2, §3, §4, §5, §6

Drechslera teres = tested on: Drechslera teres
Description: as §1, §2, §3, §4, §5, §6

Fusarium solani = tested on: Fusarium solani
Description: as §1, §2, §3, §4, §5, §6

Sclerotinia sclerotiorum = settings: 2x assays
Description: as §1, §2, §3, §4, §5, §6

Aphanomyces sp. = settings: 2x assays
Description: as §1, §2, §3, §4, §5, §6

Fusarium culmorum = tested on: Fusarium culmorum
Description: as §1, §2, §3, §4, §5, §6

Phyllosticta maydis = tested on: Phyllosticta maydis
Description: as §1, §2, §3, §4, §5, §6

Alternaria helianthi = settings: 2x assays
Description: as §1, §2, §3, §4, §5, §6

Phytophthora cinnemani = tested on: Phytophthora cinnemani
Description: as §1, §2, §3, §4, §5, §6

Tapesia yallundae = settings: 2x assays
Description: as §1, §2, §3, §4, §5, §6

Botrytis alli = settings: 2x assays
Description: as §1, §2, §3, §4, §5, §6

Phytophthora parasitica = tested on: Phytophthora parasitica
Description: as §1, §2, §3, §4, §5, §6

Bipolaris sorokiniana = tested on: Bipolaris sorokiniana
Description: as §1, §2, §3, §4, §5, §6

Tapesia acuformis = settings: 2x assays
Description: as §1, §2, §3, §4, §5, §6

Phytophthora ultimum = tested on: Phytophthora ultimum
Description: as §1, §2, §3, §4, §5, §6

Stagonospora nodorum = tested on: Stagonospora nodorum
Description: as §1, §2, §3, §4, §5, §6

[1] = tested on: Fusarium oxysporum cubense
Description: as §1, §2, §3, §4, §5, §6

Measured: lowest level of compound that results in no growth

pseudomycin A-PO4
50 µg/mL: Aphanomyces sp.; two day results | Tapesia yallundae; five day results | Botrytis alli; two day results | Tapesia acuformis; five day results | Tapesia acuformis; two day results
25 µg/mL: Alternaria helianthi; five day results | Alternaria helianthi; two day results | Tapesia yallundae; two day results
NI: Phytophthora cactorum; five day results | Phytophthora cactorum; two day results | Phoma chrysamthecola | Drechslera teres; five day results | Drechslera teres; two day results | Fusarium solani; five day results | Fusarium solani; two day results | Sclerotinia sclerotiorum; five day results | Sclerotinia sclerotiorum; two day results | Fusarium culmorum; five day results | Fusarium culmorum; two day results | Phyllosticta maydis; five day results | Phytophthora cinnemani; five day results | Phytophthora cinnemani; two day results | Phytophthora parasitica; five day results | Phytophthora parasitica; two day results | Bipolaris sorokiniana; five day results | Bipolaris sorokiniana; two day results | Phytophthora ultimum; five day results | Phytophthora ultimum; two day results | Stagonospora nodorum; five day results | Stagonospora nodorum; two day results | [1]; five day results | [1]; two day results
p at 50: Verticillium dahliae; five day results | Verticillium dahliae; two day results | Aphanomyces sp.; five day results | Phyllosticta maydis; two day results | Botrytis alli; five day results
